We go through four compounds from patent publication US8901171B2, “Compounds for suppressing a peripheral nerve disorder induced by an anti-cancer agent” (Takeda Pharmaceutical Company Limited, priority 2010, dated 2014).

Common to all, as to type: in vivo
Series [1] relates to Mice (C57BL/6N, male, 8-week-old), peripheral nerve disorders induced by various anti-cancer agents. Put plainly: Experimental Example 2: pain threshold of mice given various anti-cancer agents, balance type pressing device (Ugo Basile). The settings on record: 1 week after. As to the method:
Mice (C57BL/6N, male, 8-week-old) were divided into Group A, Group B, and Group C. As Group A, non-treated animals were used. […] Group C was intravenously administered with compound 72 (3 mg/kg body weight) of Reference Example A dissolved in an emulsion containing soybean oil, egg-yolk lecithin, glycerol and the like immediately before intraperitoneal administration of various anti-cancer agents. Thus, neither an enumerated anti- cancer agent nor Compound 72 was administered to Group A; an anti-cancer agent but not Compound 72 was administered to Groups B; and both an anti-cancer agent and Compound 72 were administered to Groups C. Pain threshold of each group was measured 1 week after the administration of the anti-cancer agent. Pain threshold is a weighed value (gram) at the time when a false escape response is observed by pressurizing the plantar part of the right hindlimb using a balance type pressing device (Ugo Basile). The values in the Table show mean ±standard error of the weighed values, and n is the number of the mice in each group.

Series [2] deals with Mice (C57BL/6N, male, 7-week-old), peripheral nerve disorders induced by paclitaxel. Put plainly: Experimental Example 1: pain threshold of paclitaxel-treated mice, balance type pressing device (Ugo Basile). To be noted: mean ± standard error. How it is done:
Mice (C57BL/6N, male, 7-week-old) were divided into Group A (6 mice), Group B (6 mice), and Group C (6 mice). Group B and Group C were intraperitoneally administered with paclitaxel (dissolved in ethanol:Cremophor EL:saline=0.5:0.5:9; 4 mg/kg body weight). As Group A, non-treated animals were used. Group C was intravenously administered with compound 72 (10 mg/kg body weight) of Reference Example A dissolved in an emulsion containing soybean oil, egg-yolk lecithin, glycerol and the like immediately before and 1 and 2 weeks after intraperitoneal administration of paclitaxel (total 3 times). Thus, neither paclitaxel nor Compound 72 was administered to Group A; paclitaxel but not Compound 72 was administered to Group B; and both paclitaxel and Compound 72 were administered to Group C. Pain threshold of each group was measured 3 weeks after paclitaxel administration to Group B and Group C. Pain threshold is a weighed value (gram) at the time when a false escape response is observed by pressurizing the plantar part of the right hindlimb using a balance type pressing device (Ugo Basile). The values in the Table show mean ±standard error of the weighed values.

For series [3], the system named is Rat (Wistar, male, 5-week-old), peripheral nerve disorders induced by paclitaxel. Description: Experimental Example 3: pain threshold of paclitaxel-treated rats, Electronic von Frey. As to the method: Rat (Wistar, male, 5-week-old) were divided into Group A, Group B, and Group C. As Group A, non-treated animals were used. To Group B and Group C, paclitaxel is diluted with saline to a given concentration, and intraperitoneally administered at 6 mg/kg body weight for a total of 3 times at intervals of 1 to 2 days. Group C was intravenously administered with compound 72 (10 mg/kg body weight) of Reference Example A dissolved in an emulsion containing soybean oil, egg-yolk lecithin, glycerol and the like immediately before intraperitoneal administration of paclitaxel (total 3 times). Thus, neither paclitaxel nor Compound 72 was administered to Group A; paclitaxel but not Compound 72 was administered to Group B; and both paclitaxel and Compound 72 were administered to Group C. Pain threshold of each group was measured 2 weeks after first paclitaxel administration. Pain threshold is a weighed value (gram) at the time when an avoidance response is observed by pressurizing the plantar part of the right hindlimb using an Electronic von Frey (IITC Life Science). The values in the Table show mean ±standard error of the weighed values, and n is the number of the rats in each group.

For series [4], the system named is Mice (C57BL/6N, male, 8-week-old), peripheral nerve disorders induced by various anti-cancer agents. Put plainly: Experimental Example 4: pain threshold of mice given various anti-cancer agents, compound 9′, balance type pressing device (Ugo Basile). As to the method: Group D was intravenously administered with compound 9′ (1 mg/kg body weight) of Reference Example B dissolved in solution of N methyl-D(−)-glucamine (0.01 mol/L) immediately before intraperitoneal administration of various anti-cancer agents. Pain threshold of each group was measured 3 week after the administration for paclitaxel and 1 week after the administration for the anti-cancer agents other than paclitaxel. Pain threshold is a weighed value (gram) at the time when a false escape response is observed by pressurizing the plantar part of the right hindlimb using a balance type pressing device (Ugo Basile). The values in the Table show mean±standard error of the weighed values, and n is the number of the mice in each group.

Turning to `CCOC(=O)C1=CCCC[C@H]1S(=O)(=O)Nc1ccc(F)cc1Cl` [compound 72, ethyl (6R)-6-[N-(2-chloro-4-fluorophenyl)sulfamoyl]-1-cyclohexene-1-carboxylate], the “Pain threshold” value came out at 306.7 ± 24.0 g in series [1] (Group C: bortezomib 0.4 mg/kg i.p. + compound 72 3 mg/kg i.v. immediately before, mean ± standard error); 213.3 ± 13.3 g in series [1] (Group C: carboplatin 40 mg/kg i.p. + compound 72 3 mg/kg i.v. immediately before, mean ± standard error); 166.7 ± 18.5 g in series [1] (Group C: cisplatin 3 mg/kg i.p. + compound 72 3 mg/kg i.v. immediately before, mean ± standard error); 276.7 ± 17.4 g in series [1] (Group C: docetaxel 3 mg/kg i.p. + compound 72 3 mg/kg i.v. immediately before, mean ± standard error); 289.2 ± 44.6 g in series [1] (Group C: vincristine 0.1 mg/kg i.p. + compound 72 3 mg/kg i.v. immediately before, mean ± standard error); 441.7 ± 28.6 g in series [2] (Group C: paclitaxel 4 mg/kg i.p. + compound 72 10 mg/kg i.v. immediately before and 1 and 2 weeks after (3 times), measured 3 weeks after paclitaxel). For the same compound, the “Pain threshold” value in series [3] (Group C: paclitaxel 6 mg/kg i.p. 3 times + compound 72 10 mg/kg i.v. immediately before each, 2 weeks after first paclitaxel, mean ± standard error) is recorded as 24.9 ± 0.9 g.
As for `CC(=O)O[C@H]1C(=O)[C@@]2(C)[C@H]([C@H](OC(=O)c3ccccc3)[C@]3(O)C[C@H](OC(=O)[C@H](O)[C@@H](NC(=O)c4ccccc4)c4ccccc4)C(C)=C1C3(C)C)[C@]1(OC(C)=O)CO[C@@H]1C[C@@H]2O` [paclitaxel, reference compound], the “Pain threshold” value in series [2] (Group B: paclitaxel 4 mg/kg i.p. alone, measured 3 weeks after, non-treated Group A 443.3 ± 32.8) turned out to be 185.0 ± 19.3 g; in series [3] (Group B: paclitaxel 6 mg/kg i.p. 3 times alone, 2 weeks after first administration, non-treated Group A 25.8 ± 0.7), 15.4 ± 2.6 g.
For the compound `N.N.O=C([O-])C1(C(=O)[O-])CCC1.[Pt+2]` [Carboplatin, carboplatin, reference compound], the “Pain threshold” value in series [1] (Group B: anti-cancer agent alone i.p. (docetaxel 3, vincristine 0.1, cisplatin 3, carboplatin 40, bortezomib 0.4 mg/kg), non-treated Group A 365.0 ± 17.8) worked out at 110.0 ± 6.8 g; in series [4] (Group B: anti-cancer agent alone i.p. (docetaxel 3, vincristine 0.1, cisplatin 3, carboplatin 40, bortezomib 0.4 mg/kg), 1 week after), 110.0 ± 6.8 g.
For `CCOC(=O)C1=CCOC[C@H]1S(=O)(=O)Nc1ccc(F)cc1Cl` [compound 9′, ethyl (3S)-3-[N-(2-chloro-4-fluorophenyl)sulfamoyl]-3,6-dihydro-2H-pyran-4-carboxylate], the “Pain threshold” value in series [4] (Group D: bortezomib 0.4 mg/kg i.p. + compound 9′ 1 mg/kg i.v. immediately before, 1 week after) was 256.7 ± 26.5 g; in series [4] (Group D: carboplatin 40 mg/kg i.p. + compound 9′ 1 mg/kg i.v. immediately before, 1 week after), 176.7 ± 16.7 g; in series [4] (Group D: cisplatin 3 mg/kg i.p. + compound 9′ 1 mg/kg i.v. immediately before, 1 week after) it was 193.3 ± 26.2 g; in series [4] (Group D: docetaxel 3 mg/kg i.p. + compound 9′ 1 mg/kg i.v. immediately before, 1 week after) it was 276.7 ± 38.1 g; in series [4] (Group D: paclitaxel 10 mg/kg i.p. + compound 9′ 1 mg/kg i.v. immediately before, 3 week after, mean ± standard error) it was 406.7 ± 61.2 g; in series [4] (Group D: vincristine 0.1 mg/kg i.p. + compound 9′ 1 mg/kg i.v. immediately before, 1 week after) it was 306.7 ± 73.5 g.
